Laboratory results from paper PMC9166766 (Experimental & Molecular Medicine, 2022).

Columns and labels:
NFATC2 dephosphorylation = assay: NFAT mobility shifting assay in Jurkat T cells; assay type: cell-based; conditions: HA-mCherry-tagged peptides, PMA and ionomycin 2 h, n = 7
Protocol: Jurkat T cells expressing GST-tagged peptides were treated with PMA and ionomycin for activation. […] For dephosphorylation of NFATC2, Jurkat T cells were treated with PMA and ionomycin for 2 h. c Hyper- and hypophosphorylated NFATC2 of b was measured using ImageJ, and the hypo/hyper ratio was calculated (n = 7). d Snapshot images of the activated Jurkat T cells expressing the indicated peptides and tNFATC2 were obtained using confocal microscopy. The expression and localization of peptides and tNFATC2 are shown as mCherry (red) and EGFP (green), respectively. Nuclei were stained with Hoechst (blue). Scale bar, 50 μm e Nuclear-localized tNFATC2 was measured by calculating the colocalization ratio between Hoechst (M1) and EGFP (M2). […] Statistical differences were determined using a two-tailed Student’s t-test (a, c) or one-way ANOVA (e). ***p < 0.001, NC negative control.

[1] = test system: Jurkat T cells (PMA and ionomycin-induced gene expression); assay: mRNA sequencing of activated Jurkat T cells; assay type: cell-based, human
Protocol: We then extracted RNA from these cells. Construction of the cDNA library and next-generation sequencing was performed at LAS (Gimpo, Korea). We sequenced all samples on an Illumina NextSeq 500 system with 75 paired-end reads. For the RNA sequencing analysis, reads for each sample were aligned to the human genome (GRCh37/hg19 genome assembly) using STAR 2.4.0.1[25] with default settings. We used HOMER tools to quantify and normalize the defined genes in RefSeq transcripts. FPKM normalized genes were hierarchically clustered using Cluster3.0[26]. We visualized refined data with Java Treeview (http://jtreeview.sourceforge.net). We conducted gene ontology analysis of each cluster using the DAVID web tool (https://david.ncifcrf.gov). Finally, we visualized the expression levels of target genes using the Integrative Genomics Viewer (http://software.broadinstitute.org/software/igv). The raw data were submitted to the NCBI Gene Expression Omnibus under accession number GSE185561.
Fig. 3 The CABIN1 peptide inhibits T-cell activation. a Heatmap of altered genes affected by FK506 treatment or CABIN1 peptide expression upon T-cell activation. b Gene Ontology analysis of cluster III. c mRNA expression levels of genes included in cluster III. d qRT-PCR data of genes in c. The experiment was independently repeated at least three times, and the data are presented as the mean ± standard deviation. Statistical differences were determined using two-tailed Student’s t-test. *p < 0.05, **p < 0.01, ***p < 0.001, NC negative control.

C=CC[C@@H]1/C=C(\C)C[C@H](C)C[C@H](OC)[C@H]2O[C@@](O)(C(=O)C(=O)N3CCCC[C@H]3C(=O)O[C@H](/C(C)=C/[C@@H]3CC[C@@H](O)[C@H](OC)C3)[C@H](C)[C@@H](O)CC1=O)[C@H](C)C[C@@H]2OC [FK506, reference compound]
NFATC2 dephosphorylation / band shift (NFATC2 dephosphorylation): inhibited the NFATC2 band shift
CD27 and CD70 expression ([1]; Jurkat, PMA and ionomycin 8 h): repressed
RNA levels of T-cell activation markers (IL2, IL3, NFATC1, CCL4, CCL20, CXCL8) ([1]; Jurkat, PMA and ionomycin 8 h): reduced the RNA levels
TM4SF1 expression ([1]; P+I 8 h, NC 0, NC_P+I 3.268): 0.439 FPKM
CD200 expression ([1]; P+I 8 h, NC 0, NC_P+I 3.759): 0 FPKM
ZP4 expression ([1]; P+I 8 h, NC 0, NC_P+I 6.38): 0.462 FPKM
CCL3L1 expression ([1]; P+I 8 h, NC 0, NC_P+I 6.448): 0 FPKM
CCL3L3 expression ([1]; P+I 8 h, NC 0, NC_P+I 6.524): 0 FPKM
CCL1 expression ([1]; P+I 8 h, NC 0, NC_P+I 9.86): 0 FPKM
NR4A2 expression ([1]; P+I 8 h, NC 0, NC_P+I 10.173): 0.04 FPKM
CCL4L2 expression ([1]; P+I 8 h, NC 0, NC_P+I 12.758): 0.087 FPKM
CCL4L1 expression ([1]; P+I 8 h, NC 0, NC_P+I 13.27): 0.087 FPKM
CSF2 expression ([1]; P+I 8 h, NC 0, NC_P+I 23.497): 0 FPKM
XCL1 expression ([1]; P+I 8 h, NC 0, NC_P+I 49.113): 0 FPKM
CCL3 expression ([1]; P+I 8 h, NC 0, NC_P+I 52.239): 0 FPKM
CCL20 expression ([1]; P+I 8 h, NC 0, NC_P+I 59.393): 0 FPKM
IL3 expression ([1]; P+I 8 h, NC 0, NC_P+I 229.054): 0.062 FPKM
CCL4 expression ([1]; P+I 8 h, NC 0, NC_P+I 247.287): 0 FPKM
IL2 expression ([1]; P+I 8 h, NC 0, NC_P+I 397.807): 0.287 FPKM
C3 expression ([1]; P+I 8 h, NC 0.006, NC_P+I 3.907): 0.489 FPKM
TNS3 expression ([1]; P+I 8 h, NC 0.008, NC_P+I 13.196): 0.678 FPKM
PLS3 expression ([1]; P+I 8 h, NC 0.019, NC_P+I 4.717): 0.052 FPKM
CREB5 expression ([1]; P+I 8 h, NC 0.031, NC_P+I 4.533): 0.577 FPKM
IRF4 expression ([1]; P+I 8 h, NC 0.034, NC_P+I 8.439): 0.423 FPKM
CXCL8 expression ([1]; P+I 8 h, NC 0.037, NC_P+I 26.755): 0.937 FPKM
SLAMF1 expression ([1]; P+I 8 h, NC 0.042, NC_P+I 5.663): 0.217 FPKM
TNFSF14 expression ([1]; P+I 8 h, NC 0.045, NC_P+I 69.958): 1.023 FPKM
IL21R-AS1 expression ([1]; P+I 8 h, NC 0.048, NC_P+I 23.616): 1.927 FPKM
XCL2 expression ([1]; P+I 8 h, NC 0.056, NC_P+I 70.747): 0 FPKM
LIF expression ([1]; P+I 8 h, NC 0.063, NC_P+I 3.697): 0.143 FPKM
SHC4 expression ([1]; P+I 8 h, NC 0.069, NC_P+I 4.391): 0.663 FPKM
RGS16 expression ([1]; P+I 8 h, NC 0.077, NC_P+I 29.102): 1.172 FPKM
IL21R expression ([1]; P+I 8 h, NC 0.1, NC_P+I 34.712): 2.244 FPKM
CRTAM expression ([1]; P+I 8 h, NC 0.104, NC_P+I 100.175): 3.325 FPKM
ZNF704 expression ([1]; P+I 8 h, NC 0.107, NC_P+I 4.985): 0.014 FPKM
NTRK1 expression ([1]; P+I 8 h, NC 0.167, NC_P+I 7.941): 0.836 FPKM
PHEX expression ([1]; P+I 8 h, NC 0.188, NC_P+I 17.377): 0.213 FPKM
SORBS1 expression ([1]; P+I 8 h, NC 0.196, NC_P+I 5.08): 0.4 FPKM
TIAM2 expression ([1]; P+I 8 h, NC 0.255, NC_P+I 4.095): 0.27 FPKM
CRIM1 expression ([1]; P+I 8 h, NC 0.268, NC_P+I 3.029): 0.305 FPKM
SERPINB2 expression ([1]; P+I 8 h, NC 0.28, NC_P+I 85.882): 2.905 FPKM
CCND2 expression ([1]; P+I 8 h, NC 0.321, NC_P+I 6.436): 0.558 FPKM
CXCR3 expression ([1]; P+I 8 h, NC 0.604, NC_P+I 14.322): 0.503 FPKM
ISM1 expression ([1]; P+I 8 h, NC 0.798, NC_P+I 56.893): 0.726 FPKM
C10orf54 expression ([1]; P+I 8 h, NC 0.84, NC_P+I 7.506): 0.382 FPKM
CSF1 expression ([1]; P+I 8 h, NC 0.848, NC_P+I 13.43): 1.706 FPKM
SLC35E4 expression ([1]; P+I 8 h, NC 0.887, NC_P+I 9.069): 0.952 FPKM
ZNF827 expression ([1]; P+I 8 h, NC 0.975, NC_P+I 3.401): 1.521 FPKM
CD70 expression ([1]; P+I 8 h, NC 1.101, NC_P+I 61.146): 3.005 FPKM
PAM expression ([1]; P+I 8 h, NC 1.154, NC_P+I 5.577): 1.483 FPKM
FOXO1 expression ([1]; P+I 8 h, NC 1.167, NC_P+I 8.247): 1.77 FPKM
IRF8 expression ([1]; P+I 8 h, NC 1.168, NC_P+I 14.813): 1.19 FPKM
SCHIP1 expression ([1]; P+I 8 h, NC 1.25, NC_P+I 3.933): 1.535 FPKM
FOSL2 expression ([1]; P+I 8 h, NC 1.294, NC_P+I 7.508): 2.204 FPKM
TNFSF9 expression ([1]; P+I 8 h, NC 1.393, NC_P+I 7.107): 2.568 FPKM
IQCJ-SCHIP1 expression ([1]; P+I 8 h, NC 1.402, NC_P+I 4.253): 1.657 FPKM
STAT5A expression ([1]; P+I 8 h, NC 1.417, NC_P+I 9.105): 3.347 FPKM
TDRD9 expression ([1]; P+I 8 h, NC 1.428, NC_P+I 25.902): 1.245 FPKM
